Test results as given in ChEMBL document CHEMBL1151131, “Bioactivity of the essential oil of Bupleurum fruticosum” (1989).
Activity calls are given as the source filed them. No cut-off for these calls is given here.

What was measured:
Rattus norvegicus [1] = assay: Antiinflammatory activity against carrageenan-induced plantar edema in Wistar rat hind paw at 20 mg/kg, ip administered 1 hr before carrageenan challenge measured after 5 hrs; type: functional; details: route intraperitoneal
Rattus norvegicus [2] = assay: Antiinflammatory activity against carrageenan-induced plantar edema in Wistar rat hind paw at 80 mg/kg, ip administered 1 hr before carrageenan challenge measured after 1 hrs; type: functional; details: route intraperitoneal
Rattus norvegicus [3] = assay: Antiinflammatory activity against carrageenan-induced plantar edema in Wistar rat hind paw at 40 mg/kg, ip administered 1 hr before carrageenan challenge measured after 5 hrs; type: functional; details: route intraperitoneal
Rattus norvegicus [4] = assay: Antiinflammatory activity against carrageenan-induced plantar edema in Wistar rat hind paw at 80 mg/kg, ip administered 1 hr before carrageenan challenge measured after 3 hrs; type: functional; details: route intraperitoneal
Rattus norvegicus [5] = assay: Antiinflammatory activity against carrageenan-induced plantar edema in Wistar rat hind paw at 20 mg/kg, ip administered 1 hr before carrageenan challenge measured after 1 hrs; type: functional; details: route intraperitoneal
Rattus norvegicus [6] = assay: Antiinflammatory activity against carrageenan-induced plantar edema in Wistar rat hind paw at 40 mg/kg, ip administered 1 hr before carrageenan challenge measured after 1 hrs; type: functional; details: route intraperitoneal
Rattus norvegicus [7] = assay: Antiinflammatory activity against carrageenan-induced plantar edema in Wistar rat hind paw at 20 mg/kg, ip administered 1 hr before carrageenan challenge measured after 3 hrs; type: functional; details: route intraperitoneal
Rattus norvegicus [8] = assay: Antiinflammatory activity against carrageenan-induced plantar edema in Wistar rat hind paw at 80 mg/kg, ip administered 1 hr before carrageenan challenge measured after 5 hrs; type: functional; details: route intraperitoneal
Rattus norvegicus [9] = assay: Antiinflammatory activity against carrageenan-induced plantar edema in Wistar rat hind paw at 40 mg/kg, ip administered 1 hr before carrageenan challenge measured after 3 hrs; type: functional; details: route intraperitoneal
Uterus [10] = assay: Antispasmodic activity against oxytocin-induced contraction in Wistar rat uterus at 1.1 ug/ml; type: functional, tissue-based
Rattus norvegicus [11] = assay: Antiinflammatory activity against carrageenan-induced plantar edema in Wistar rat hind paw at 33 mg/kg, ip administered 1 hr before carrageenan challenge measured after 3 hrs; type: functional; details: route intraperitoneal
Rattus norvegicus [12] = assay: Antiinflammatory activity against carrageenan-induced plantar edema in Wistar rat hind paw at 66 mg/kg, ip administered 1 hr before carrageenan challenge measured after 3 hrs; type: functional; details: route intraperitoneal
Uterus [13] = assay: Antispasmodic activity against oxytocin-induced contraction in Wistar rat uterus at 2.2 ug/ml; type: functional, tissue-based

Compound	Activity (Rattus norvegicus [1])	Activity (Rattus norvegicus [2])	Activity (Rattus norvegicus [3])	Activity (Rattus norvegicus [4])	Activity (Rattus norvegicus [5])	Activity (Rattus norvegicus [6])	Activity (Rattus norvegicus [7])	Activity (Rattus norvegicus [8])	Activity (Rattus norvegicus [9])	Activity (Uterus [10])	Activity (Rattus norvegicus [11])	Activity (Rattus norvegicus [12])	Activity (Uterus [13])
CC1=CCC2CC1C2(C)C (stereo not drawn) [ALPHA-PINENE]	-1.6%	19%	14%	26.2%	5.6%	20.4%	8.9%	13.2%	21%	–	–	–	–
C=C1CCC2CC1C2(C)C (stereo not drawn) [BETA-PINENE]	16.7%	8.7%	14.9%	32.2%	20.5%	27.5%	15.1%	31.9%	19.2%	–	–	–	–
CC1=CCC2C(C1)C2(C)C (configuration not stated) [CARENE]	–	–	–	–	–	–	–	–	–	Active	50.3%	77%	Active
